Measured values published in patent publication US5278045A, “Method and compositions to screen compounds for enhancement of the cholinergic, dopaminergic and serotonergic function” (Du Pont Merck Pharmaceutical Company, priority 1990, dated 1994).

How the values were obtained:
DuP 996 binding protein [1] = assay: Radioreceptor screening assay (displacement of tritiated DuP 996); design: species or system rat; conditions: inhibition of binding of 10 nM tritiated DuP 996, pH 7.4, 25° C., 60 minutes
Procedure: Male Sprague-Dawley rats (Charles River Breeding Laboratories) at 200-250 g were euthanatized by decapitation. Rat brain regions were dissected according to Heffner et al., Pharmacol. Biochem. Behav., 13, 453 (1980). Brain membranes were prepared by the method of Tam, Proc. Natl. Acad. Sci. USA, 80, 6703 (1983). The brain tissues were homogenized (20 sec) in 10 vol (wt/vol) of ice-cold 0.32M sucrose with a Brinkman Polytron (setting 8). The homogenate was centrifuged at 920×g for 10 min at 4° C. The supernatant was centrifuged at 47,000×g for 20 min. The resulting membrane pellet was resuspended in 10 vol (original wt/vol) of 50 mM Tris-HCl (pH 7.4) and incubated at 37° C. for 30 min to degrade and dissociate bound endogenous ligands. The membranes were then centrifuged at 47,000×g for 20 min and resuspended in 50 mM Tris-HCl.
Compounds to be screened were incubated with brain membranes. (1-2 mg protein) in 50 mM Tris-HCl buffer, pH 7.4, for 10 minutes in 25° C. Then 10 nM tritiated DuP 996 or its active structural analogs were added and incubated at 25° C. for 60 minutes. The samples were filtered on Whatman GF/B glass filters which had been soaked in 0.2% polyethylenimine and washed 3 times each with 5 ml of ice-cold Tris buffer. Nonspecific binding was determined by performing binding in the presence of 10 μM DuP 996. The control represents specific binding in the absence of compounds to be screened. Screened compounds which inhibited the specific binding of tritiated DuP 996 or analogs to its binding protein should be active in binding to the same protein. This is illustrated further in Example 4, Part B.

DuP 996 binding protein [2] = assay: Trypsin pretreatment, binding of tritiated DuP 996; design: species or system rat; conditions: 0.1-100 μg/ml trypsin, 25° C., 10 min
Procedure: (§1) One ml aliquots of brain membranes (1-2 mg of protein) in 50 mM Tris-HCl buffer, pH 7.4, were incubated with 0.1-100 μg/ml of trypsin (17,000 BAEE units/mg protein) at 25° C. for 10 min. 10 nM of tritiated DuP 996 was added and incubated for 45 min at 25° C. for ten minutes. Samples were filtered on Whatman GF/B filters which had been presoaked in 0.2% polyethylenimine under negative pressure and washed 3 times with ice-cold buffer. Nonspecific binding was determined in the presence of 10 μM DuP 996.

DuP 996 binding protein [3] = assay: Phospholipase C pretreatment, binding of tritiated DuP 996; design: species or system rat; conditions: 5-50 μg/ml phospholipase C, 10 min, 37° C.
Procedure: as §1, with “5-50” for “0.1-100”, “phospholipase C” for “trypsin (17,000 BAEE units/mg protein) at 25° C.”, “min at 37° C.” for “min.”, “C.” for “C. for ten minutes.”

[4] = test system: Detergent Solubilized Rat Brain Membrane Proteins; assay: Specific [^3 H]DuP 996 binding to detergent solubilized rat brain membrane proteins; conditions: 10 nM tritiated DuP 996
Procedure: […] The mixture was centrifuged at 47,000×g for 20 minutes. The supernatant containing the solubilized protein was collected. The supernatant from centrifugation of brain membranes without detergent was used as the control.
Fifty μl aliquots of the solubilized membrane protein were incubated with 0.2 ml of 50 mM Tris-HCl, pH 7.4, with 0.1% bovine serum albumin, and 10 nM tritiated DuP 996 in a total volume of 0.325 ml. Nonspecific binding was determined in the presence of 10 μM DuP 996. After 1 hour of incubation at 25° C., 0.5 ml of ice-cold 0.1M sodium phosphate buffer, pH 7.4, with 0.1% bovine gamma globulin was added. The sample was put on ice and then 0.5 ml of 25% (w/v) polyethylene glycol 8000 was added and mixed. The sample was put on ice for 10 to 15 minutes and filtered through Whatman GF/B filters which had been presoaked in 0.2% polyethylenimine. The filtered sample was washed twice with 3 ml each of ice cold 8% polyethylene glycol 8000 in 100 mM Tris-HCl, pH 7.4. Bound radioactivity retained on the filters was counted in a liquid scintillation counter.

Alzheimer's patients = conditions: clinical trials with cholinesterase inhibitors, literature; cited from earlier work
ACh release = assay: Neurotransmitter release assay: stimulated ACh release from brain slices; design: species or system rat; conditions: concentration to enhance stimulated release of ACh by 100% (2-fold) over control, from dose response curves
Procedure: Male Wistar rats weighing 175-200 g were euthanatized and the brains were dissected out immediately. Slices (0.3 mm thick) from the parietal cortex were prepared manually by using a recessed Lucite® guide. Slices (1.5 mm thick) from the hippocampus and the caudate nucleus were prepared by using a slotted brain holder. All slices were subsequently cut into 0.25×0.25 mm squares with a McIlwain tissue chopper.
Labeling of transmitter stores in slices was prepared by the following methods. For ACh release, slices (approximately 100 mg wet weight) were incubated in 10 ml Krebs-Ringer (KR) medium containing (mM): NaCl(116), KCl(3), CaCl2 (1.3), MgCl2 (1.2), KH2 PO4 (1.2), Na2 SO4 (1.2), NaHCO3 (25) and glucose(11), to which 10 μCi ^3 H-choline (specific activity approx. 80 Ci/mmol: NEN) and 10 nmol unlabeled choline had been added to give a final concentration of 10^-6 M. Incubation was carried out for 30 min at 37° C. under a steady flow of 95% O2 /5% CO2. Under these conditions, part of the radioactive choline taken up is converted into radioactive ACh by cholinergic nerve endings, stored in synaptic vesicles, and released upon depolarization by high-K^+ -containing medium [Molenaar et al., 1973a]. For dopamine (DA), serotonin (5-HT), and norepinephrine (NE) release, slices (approximately 100 mg wet weight) were incubated in KR medium containing 0.01 mM nialamide at 37° C. under a steady flow of 95% O2 /5% CO2. The MAO-inhibitor nialamide was added to the medium in order to inhibit metabolism to the monoamines. Incubation was for 30 min in 10 ml of KR medium to which 10 μCi ^3 H-dopamine, ^3 H-norepinephrine, or ^3 H-5-hydroxytryptamine (specific activity 30, 45, and 78 Ci/mmol, respectively: all from NEN) had been added.
Separate experiments were performed for the release of each neurotransmitter. After labeling of the transmitter stores, the slices were washed three times with non-radioactive KR medium and transferred to a superfusion apparatus to measure the drug effects on transmitter release [Schoemaker et al., Psychopharmacology 74, 137 (1981)]. The superfusion apparatus consisted of 10 thermo-jacketed glass columns of 5 mm diameter which were provided with GF/F glass fiber filters to support the brain slices (approximately 10 mg tissue/column). Superfusion was carried out with KR medium at a rate of 0.3 ml/min. For ACh release, 10^-5 M hemicholinium-3 was added to the medium to prevent the uptake of choline formed during superfusion from phospholipids and released ACh, so that it could not be subsequently converted into newly synthesized ACh, which would be released in preference to the pre-formed, labeled ACh. The medium was delivered by a 25-channel peristaltic pump (Ismatec; Brinkman) and maintained at 37° C. by a thermostated stainless-steel heating coil before entering the superfusion column. Each column was provided with a four-way slider valve (Beckman Instruments) which allowed rapid change of low-to-high-K^+ -KR-medium and with two 10-channel, 3-way valves which were used to change form drug-free to drug-containing low- and high-K^+ -KR media.
After 15 min washout of non-specifically bound radioactivity during superfusion, the collection of fractions of 4 min (1.2 ml) each was started. After 3×4 min, the KR medium was changed to a KR medium with 25 mM KCl (ACh, 5-HT release) or 12.5 mM KCl (DA release) (high K^+ -KR medium; S1). Depolarization-induced stimulation of release by high-K^+ -KR medium was then substituted by drug- or vehicle-containing low- and high-K^+ -KR medium and superfusion continued for 3×4 min with low-K^+ -KR medium, for 1×4 min with high-K^+ -KR medium (S2), and for 2×4 min with low-K^+ -KR medium.
Compounds were added to the medium by 100-fold dilution of appropriate stock solutions (in 0.9% NaCl/H2 O) with either low- or high-K^+ -KR medium.
All superfusion fractions were collected in liquid scintillation counting vials.

| IC50 (DuP 996 binding protein [1]) | SPECIFIC BINDING ([4]; CHAPS, 20 mM) | SPECIFIC BINDING ([4]; NP40) | SPECIFIC BINDING ([4]; Octyl glucoside, 0.4%) | SPECIFIC BINDING ([4]; Triton X-100, 1%) | SPECIFIC BINDING ([4]; Tween 80, 1%) | Compound | tritiated DuP 996 binding activity after trypsin preincubation (DuP 996 binding protein [2]) | DuP 996 binding activity after preincubation with phospholipase C (DuP 996 binding protein [3]) | cognitive measures in Alzheimer's patients (Alzheimer's patients) | ACh Release EC100 (ACh release) |
| --- | --- | --- | --- | --- | --- | --- | --- | --- | --- | --- |
| 56 nM | 868 dpm | 348 dpm | 511 dpm | 0 dpm | 134 dpm | O=C1N(c2ccccc2)c2ccccc2C1(Cc1ccncc1)Cc1ccncc1 [Compound 7, 3,3-Bis(4-pyridinylmethyl)-1-phenylindolin-2-one] | loss of tritiated DuP 996 binding activity | no effect on the DuP 996 binding activity |  |  |
|  |  |  |  |  |  | CNC(=O)Oc1ccc2c(c1)[C@]1(C)CCN(C)[C@@H]1N2C [physostigmine] |  |  | limited improvement in cognitive measures |  |
| 670 nM |  |  |  |  |  | O=C1N(c2ccccc2)c2ccccc2C1(Cc1ccncc1)Cc1cn[nH]c1 (centres unmarked) [Compound 17, 1,3-Dihydro-1-phenyl-3-(1H-pyrazol-4-ylmethyl)-3-(4-pyridinyl-methyl)-2H-indol-2-one] |  |  |  | 3,000 nM |
